Assay results from patent EP0908457B1, “3-(1,2-benzisothiazol- and isoxazol-5-Y1)-2,4(1H,3H)-pyrimidinedione or thione and 3-(1,2-benzisothiazol- and isoxazol-5-y1)-4(3H)-pyrimidinone or thione herbicidal agents” (BASF AKTIENGESELLSCHAFT, priority 1997, dated 1999).

Assays:
[1] = test system: Sagittaria pygmaea, L.; test: Postemergence weed control under flooded paddy conditions, SAGPY (Arrowhead (Pygmaea)); assay type: in vivo; conditions: rated three to four weeks after treatment
[2] = test system: Cyperus serotinus, Rottb.; test: Postemergence weed control under flooded paddy conditions, CYPSE (Flatsedge); assay type: in vivo; conditions: rated three to four weeks after treatment
[3] = test system: Monochoria vaginalis, Presl.; test: Postemergence weed control under flooded paddy conditions, MOOVA (Monochoria); assay type: in vivo; conditions: rated three to four weeks after treatment
[4] = test system: Monochoria vaginalis, Presl.; test: Preemergence weed control under flooded paddy conditions, MOOVA (Monochoria); assay type: in vivo; conditions: flooded paddy, rated three to four weeks after treatment; further: meaning of each grade not given here
[5] = test system: Oryza sativa, (L.) Tebonnet; test: Rice tolerance to post-transplant applications under flooded paddy conditions (Example 187), ORYSAT (Rice, Tebonnet); conditions: rated three to four weeks after treatment
[6] = test system: Oryza sativa, (L.) Tebonnet; test: Rice tolerance to post-transplant applications under flooded paddy conditions (Example 188), ORYSAT (Rice, Tebonnet); conditions: rated three to four weeks after treatment
[7] = test system: Cyperus iria; test: Postemergence weed control under flooded paddy conditions, CYPIR (Rice Flatsedge); assay type: in vivo; conditions: rated three to four weeks after treatment
[8] = test system: Echinochloa oryzoides (Ard.) Fritsch.; test: Preemergence weed control under flooded paddy conditions, ECHORC (Watergrass (Calif.)); assay type: in vivo; conditions: flooded paddy, rated three to four weeks after treatment; further: meaning of each grade not given here
[9] = test system: Sagittaria pygmaea, L.; test: Preemergence weed control under flooded paddy conditions, SAGPY (Arrowhead (Pygmaea)); assay type: in vivo; conditions: flooded paddy, rated three to four weeks after treatment; further: meaning of each grade not given here
[10] = test system: Cyperus iria; test: Preemergence weed control under flooded paddy conditions, CYPIR (Rice Flatsedge); assay type: in vivo; conditions: flooded paddy, rated three to four weeks after treatment; further: meaning of each grade not given here
[11] = test system: Echinochloa oryzoides (Ard.) Fritsch.; test: Postemergence weed control under flooded paddy conditions, ECHORC (Watergrass (Calif.)); assay type: in vivo; conditions: rated three to four weeks after treatment
[12] = test system: Cyperus serotinus, Rottb.; test: Preemergence weed control under flooded paddy conditions, CYPSE (Flatsedge); assay type: in vivo; conditions: rated three to four weeks after treatment; further: meaning of each grade not given here
[13] = Rate 0.0320 kg/ha, preemergence weeds
[14] = Rate 0.0620 kg/ha, preemergence weeds
[15] = Rate 0.1250 kg/ha, preemergence weeds
[16] = Rate 0.2500 kg/ha, preemergence weeds

Cn1c(C(F)(F)F)cc(=O)n(-c2ccc3snc(-c4ccccc4)c3c2)c1=O [Example 4, 1-Methyl-3-(3-phenyl-1,2-benzisothiazol-5-yl)-6-(trifluoromethyl)-2,4(1H,3H)-pyrimidinedione]
8.0: herbicidal effect rating, MOOVA ([3]; Rate 0.0313 kg/ha) | herbicidal effect rating, ORYSAT (rice tolerance) ([5]; 0.2500 kg/ha) | herbicidal effect rating, ORYSAT (rice tolerance) ([5]; 0.5000 kg/ha) | herbicidal effect rating, ORYSAT (rice tolerance) ([6]; Rate 0.2500 kg/ha) | herbicidal effect rating, ORYSAT (rice tolerance) ([6]; Rate 0.5000 kg/ha) | herbicidal effect rating, CYPIR ([7]; Rate 0.0313 kg/ha)
7.0: herbicidal effect rating, CYPSE ([2]; Rate 0.1250 kg/ha) | herbicidal effect rating, CYPSE ([2]; Rate 0.2500 kg/ha) | herbicidal effect rating, ORYSAT (rice tolerance) ([5]; 0.0625 kg/ha) | herbicidal effect rating, ORYSAT (rice tolerance) ([5]; 0.1250 kg/ha) | herbicidal effect rating, ORYSAT (rice tolerance) ([6]; Rate 0.1250 kg/ha) | herbicidal effect rating, ECHORC ([11]; Rate 0.0313 kg/ha)
6.0: herbicidal effect rating, SAGPY ([1]; Rate 0.1250 kg/ha) | herbicidal effect rating, SAGPY ([9]; 0.1250 kg/ha, preemergence)
3.0: herbicidal effect rating, SAGPY ([1]; Rate 0.0313 kg/ha) | herbicidal effect rating, ORYSAT (rice tolerance) ([6]; Rate 0.0313 kg/ha)
2.0: herbicidal effect rating, SAGPY ([1]; Rate 0.0625 kg/ha) | herbicidal effect rating, CYPSE ([2]; Rate 0.0313 kg/ha) | herbicidal effect rating, SAGPY ([9]; 0.0313 kg/ha, preemergence) | herbicidal effect rating, SAGPY ([9]; 0.0625 kg/ha, preemergence) | herbicidal effect rating, CYPSE ([12]; 0.0625 kg/ha, preemergence)
4.0: herbicidal effect rating, CYPSE ([2]; Rate 0.0625 kg/ha) | herbicidal effect rating, ORYSAT (rice tolerance) ([5]; 0.0313 kg/ha) | herbicidal effect rating, ORYSAT (rice tolerance) ([6]; Rate 0.0625 kg/ha)
9.0: herbicidal effect rating, SAGPY ([1]; Rate 0.2500 kg/ha) | herbicidal effect rating, SAGPY ([1]; Rate 0.5000 kg/ha) | herbicidal effect rating, CYPSE ([2]; Rate 0.5000 kg/ha) | herbicidal effect rating, MOOVA ([3]; Rate 0.0625 kg/ha) | herbicidal effect rating, MOOVA ([3]; Rate 0.1250 kg/ha) | herbicidal effect rating, MOOVA ([3]; Rate 0.2500 kg/ha) | herbicidal effect rating, MOOVA ([3]; Rate 0.5000 kg/ha) | herbicidal effect rating, MOOVA ([4]; 0.0313 kg/ha, preemergence) | herbicidal effect rating, MOOVA ([4]; 0.0625 kg/ha, preemergence) | herbicidal effect rating, MOOVA ([4]; 0.1250 kg/ha, preemergence) | herbicidal effect rating, MOOVA ([4]; 0.2500 kg/ha, preemergence) | herbicidal effect rating, MOOVA ([4]; 0.5000 kg/ha, preemergence) | herbicidal effect rating, CYPIR ([7]; Rate 0.0625 kg/ha) | herbicidal effect rating, CYPIR ([7]; Rate 0.1250 kg/ha) | herbicidal effect rating, CYPIR ([7]; Rate 0.2500 kg/ha) | herbicidal effect rating, CYPIR ([7]; Rate 0.5000 kg/ha) | herbicidal effect rating, ECHORC ([8]; 0.0313 kg/ha, preemergence) | herbicidal effect rating, ECHORC ([8]; 0.0625 kg/ha, preemergence) | herbicidal effect rating, ECHORC ([8]; 0.1250 kg/ha, preemergence) | herbicidal effect rating, ECHORC ([8]; 0.2500 kg/ha, preemergence) | herbicidal effect rating, ECHORC ([8]; 0.5000 kg/ha, preemergence) | herbicidal effect rating, SAGPY ([9]; 0.2500 kg/ha, preemergence) | herbicidal effect rating, SAGPY ([9]; 0.5000 kg/ha, preemergence) | herbicidal effect rating, CYPIR ([10]; 0.0313 kg/ha, preemergence) | herbicidal effect rating, CYPIR ([10]; 0.0625 kg/ha, preemergence) | herbicidal effect rating, CYPIR ([10]; 0.1250 kg/ha, preemergence) | herbicidal effect rating, CYPIR ([10]; 0.2500 kg/ha, preemergence) | herbicidal effect rating, CYPIR ([10]; 0.5000 kg/ha, preemergence) | herbicidal effect rating, ECHORC ([11]; Rate 0.0625 kg/ha) | herbicidal effect rating, ECHORC ([11]; Rate 0.1250 kg/ha) | herbicidal effect rating, ECHORC ([11]; Rate 0.2500 kg/ha) | herbicidal effect rating, ECHORC ([11]; Rate 0.5000 kg/ha) | herbicidal effect rating, CYPSE ([12]; 0.1250 kg/ha, preemergence) | herbicidal effect rating, CYPSE ([12]; 0.2500 kg/ha, preemergence) | herbicidal effect rating, CYPSE ([12]; 0.5000 kg/ha, preemergence)

CCOc1cccc(-c2nsc3ccc(-n4c(=O)cc(C(F)(F)F)n(C)c4=O)cc23)c1 [Example 327, 2,4(1H,3H)-Pyrimidinedione, 3-[3-(m-ethoxyphenyl)-1,2-benzisothiazol-5-yl]-1-methyl-6-(trifluoromethyl)-]
5.0: herbicidal effect rating, ORYSAT (rice tolerance) ([6]; Rate 0.1250 kg/ha)
2.5: herbicidal effect rating ORYSAT ([5]; Rate 0.0620 kg/ha)
0.0: herbicidal effect rating, SAGPY ([1]; Rate 0.0320 kg/ha) | herbicidal effect rating, SAGPY ([1]; Rate 0.0620 kg/ha) | herbicidal effect rating, CYPSE ([2]; Rate 0.0320 kg/ha) | herbicidal effect rating, CYPSE ([2]; Rate 0.0620 kg/ha) | herbicidal effect rating, CYPSE ([2]; Rate 0.1250 kg/ha)
2.0: herbicidal effect rating, CYPSE ([2]; Rate 0.2500 kg/ha) | herbicidal effect rating, ORYSAT (rice tolerance) ([6]; Rate 0.0320 kg/ha)
4.0: herbicidal effect rating, SAGPY ([1]; Rate 0.1250 kg/ha) | herbicidal effect rating, SAGPY ([1]; Rate 0.2500 kg/ha) | herbicidal effect rating ORYSAT ([5]; Rate 0.2500 kg/ha) | herbicidal effect rating, ORYSAT (rice tolerance) ([6]; Rate 0.2500 kg/ha)
3.0: herbicidal effect rating ORYSAT ([5]; Rate 0.0320 kg/ha) | herbicidal effect rating, ORYSAT (rice tolerance) ([6]; Rate 0.0620 kg/ha) | herbicidal effect rating, SAGPY [9, 13]
7.5: herbicidal effect rating, SAGPY [9, 16]
9.0: herbicidal effect rating, MOOVA ([3]; Rate 0.0320 kg/ha) | herbicidal effect rating, MOOVA ([3]; Rate 0.0620 kg/ha) | herbicidal effect rating, MOOVA ([3]; Rate 0.1250 kg/ha) | herbicidal effect rating, MOOVA ([3]; Rate 0.2500 kg/ha) | herbicidal effect rating, MOOVA [4, 13] | herbicidal effect rating, MOOVA [4, 14] | herbicidal effect rating, MOOVA [4, 15] | herbicidal effect rating, MOOVA [4, 16] | herbicidal effect rating, CYPIR ([7]; Rate 0.0320 kg/ha) | herbicidal effect rating, CYPIR ([7]; Rate 0.0620 kg/ha) | herbicidal effect rating, CYPIR ([7]; Rate 0.1250 kg/ha) | herbicidal effect rating, CYPIR ([7]; Rate 0.2500 kg/ha) | herbicidal effect rating, ECHORC [8, 13] | herbicidal effect rating, ECHORC [8, 14] | herbicidal effect rating, ECHORC [8, 15] | herbicidal effect rating, ECHORC [8, 16] | herbicidal effect rating, CYPIR [10, 13] | herbicidal effect rating, CYPIR [10, 14] | herbicidal effect rating, CYPIR [10, 15] | herbicidal effect rating, CYPIR [10, 16] | herbicidal effect rating, ECHORC ([11]; Rate 0.0320 kg/ha) | herbicidal effect rating, ECHORC ([11]; Rate 0.1250 kg/ha) | herbicidal effect rating, ECHORC ([11]; Rate 0.2500 kg/ha) | herbicidal effect rating, CYPSE [12, 16]
5.5: herbicidal effect rating, SAGPY [9, 14] | herbicidal effect rating, SAGPY [9, 15] | herbicidal effect rating, CYPSE [12, 14] | herbicidal effect rating, CYPSE [12, 15]
1.0: herbicidal effect rating, CYPSE [12, 13]
3.5: herbicidal effect rating ORYSAT ([5]; Rate 0.1250 kg/ha)
7.0: herbicidal effect rating, ECHORC ([11]; Rate 0.0620 kg/ha)
